In patent US12668586B2, “AhR inhibitor, use thereof, and preparation method therefor” (CHONGQING PHARSCIN INNOBIO CO., LTD., priority 2021, dated 2026):

Biological target: T1, AhR (Homo sapiens, UniProt P35869)
T1 sequence (P35869 11-848): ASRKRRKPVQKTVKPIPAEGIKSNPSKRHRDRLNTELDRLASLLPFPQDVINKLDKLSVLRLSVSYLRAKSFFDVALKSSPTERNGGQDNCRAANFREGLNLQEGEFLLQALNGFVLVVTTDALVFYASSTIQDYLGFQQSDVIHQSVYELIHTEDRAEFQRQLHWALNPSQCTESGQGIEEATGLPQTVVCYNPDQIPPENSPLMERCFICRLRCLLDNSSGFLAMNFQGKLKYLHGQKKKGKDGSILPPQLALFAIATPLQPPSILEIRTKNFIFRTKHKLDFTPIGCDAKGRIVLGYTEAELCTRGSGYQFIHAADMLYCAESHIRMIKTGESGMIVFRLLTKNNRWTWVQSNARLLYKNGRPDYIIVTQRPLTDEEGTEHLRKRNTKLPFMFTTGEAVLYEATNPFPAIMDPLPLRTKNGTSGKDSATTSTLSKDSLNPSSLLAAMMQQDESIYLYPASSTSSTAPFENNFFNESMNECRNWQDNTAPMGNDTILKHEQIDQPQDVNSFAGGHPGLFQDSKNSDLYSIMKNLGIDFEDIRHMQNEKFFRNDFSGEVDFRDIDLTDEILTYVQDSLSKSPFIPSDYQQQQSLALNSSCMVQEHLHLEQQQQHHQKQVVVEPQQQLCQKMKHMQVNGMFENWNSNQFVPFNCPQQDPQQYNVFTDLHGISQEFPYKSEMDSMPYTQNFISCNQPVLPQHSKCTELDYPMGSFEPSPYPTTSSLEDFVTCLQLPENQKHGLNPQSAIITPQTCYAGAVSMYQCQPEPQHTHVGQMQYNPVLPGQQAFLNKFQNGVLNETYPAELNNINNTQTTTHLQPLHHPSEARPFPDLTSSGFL
Experiment: AhR inhibitory activity experiment, in vitro assay 1: HepG2-Lucia AhR cells, Lucia luciferase reporter (QUANTI-Luc)
Type: cell-based
Details: 24 hours incubation at 37° C., Lucia luciferase in supernatant, read-out: AhR inhibitory activity C50
Method: Test Example: AhR Inhibitory Activity Experiment
When QUANTI-Luc™ (InvivoGen Company) testing reagents are used, AhR gene signaling pathways can be studied by monitoring the activity of Lucia luciferase in the cell culture supernatant.
In Vitro Assay 1: Assay on Inhibitory Activity in Human Cell Lines
Adherent cell layers of HepG2-Lucia™ AhR cells in a logarithmic growth phase were washed with PBS, and then the cells were isolated with trypsin. The isolated cells were centrifuged at 1000 RPM for 5 minutes, the supernatant was removed, and the cells were re-suspended with a test medium by 1.25×10^5 cells/ml.
20,000 cells were added to each well of a 96-well plate, and the 96-well plate was placed in a CO2 incubator to incubate the cells at 37° C. for 24 hours in the absence (negative control) or presence of test compounds with gradient increasing concentrations (typical dilutions: 169 pmol/L, 0.5 nmol/L, 1.5 nmol/L; 4.6 nmol/L, 13.7 nmol/L, 41 nmol/L, 123 nmol/L, 370 nmol/L, 1.1 μmol/L, 3.3 μmol/L and 10 μmol/L, in triplicate).
The 20 μl/well cell supernatant was transferred to a black 96-well plate, a 50 μL/well QUANTI-Luc™ solution was added, and the activity of Lucia luciferase was measured on a multifunctional ELISA reader Spark 10 M (Tecan Company) through a QUANTI-Luc™ luciferase assay system.
Experimental results are shown in Table 1, wherein for IC50 values, “++++” represents IC50<0.05 μM; “+++” represents IC50 between 0.05 μM and 0.2 μM; “++” represents IC50 between 0.2 μM and 1.0 μM; and “+” represents IC50>1.0 μM.

Row | SMILES | IC50 [µM]
1 | C[C@H](NC(=O)c1cc(-c2ccc(Cl)cc2)nc(-c2cnn(C)c2)n1)c1ccc(F)c(F)c1 [Compound 1, (S)-6-(4-chlorophenyl)-N-(1-(3,4-difluorophenyl)ethyl)-2-(1-methyl-1H-pyrazol-4-yl)pyrimidine-4-formamide] | < 0.05
2 | Cn1cc(-c2nc(C(=O)N[C@H]3CCc4ncccc43)cc(-c3ccc(Cl)cc3)n2)cn1 [Compound 2, (S)-6-(4-chlorophenyl)-N-((S)-6,7-dihydro-5H-cyclopentano[B]pyridin-5-yl)-2-(1-methyl-1H-pyrazol-4-yl)pyrimidine-4-formamide] | < 0.05
3 | Cn1cc(-c2nc(C(=O)N[C@H]3c4ccccc4C[C@H]3O)cc(-c3ccc(Cl)cc3)n2)cn1 [Compound 3, (S)-6-(4-chlorophenyl)-N-((1S, 2R)-(−)-1-yl-2-indanol)-2-(1-methyl-1H-pyrazol-4-yl)pyrimidine-4-formamide] | 0.05 to 0.2
4 | C[C@H](NC(=O)c1cc(-c2ccc(Cl)cc2)nc(-c2cnn(C)c2)n1)c1ccncc1 [Compound 4, (S)-6-(4-chlorophenyl)-N-(1-(4-pyridine)ethyl)-2-(1-methyl-1H-pyrazol-4-yl)pyrimidine-4-formamide] | < 0.05
5 | C[C@H](NC(=O)c1cc(-c2ccc(Cl)cc2)nc(-c2cnn(C)c2)n1)c1ccnc(C(F)(F)F)c1 [Compound 5, (S)-6-(4-chlorophenyl)-N-(1-(2-trifluoromethyl-4-pyridine)ethyl)-2-(1-methyl-1H-pyrazol-4-yl)pyrimidine-4-formamide] | < 0.05
6 | Cn1cc(-c2nc(C(=O)NCCc3c[nH]c4ccccc34)cc(-c3ccc(Cl)cc3)n2)cn1 [Compound 6, (S)-6-(4-chlorophenyl)-N-(2-(1H-indol-3-yl)ethyl)-2-(1-methyl-1H-pyrazol-4-yl)pyrimidine-4-formamide] | > 1
7 | Cn1cc(-c2nc(C(=O)NC3(c4ccc(F)c(F)c4)CC3)cc(-c3ccc(Cl)cc3)n2)cn1 [Compound 7, (S)-6-(4-chlorophenyl)-N-(1-(3,4-difluorophenyl)cyclopropyl)-2-(1-methyl-1H-pyrazol-4-yl)pyrimidine-4-formamide] | < 0.05
8 | COc1ccc([C@H](C)NC(=O)c2cc(-c3ccc(Cl)cc3)nc(-c3cnn(C)c3)n2)cc1F [Compound 8, (S)-6-(4-chlorophenyl)-N-(1-(3-fluoro-4-methoxyphenyl)ethyl)-2-(1-methyl-1H-pyrazol-4-yl)pyrimidine-4-formamide] | < 0.05
9 | C[C@H](NC(=O)c1cc(-c2ccc(Cl)cc2)nc(-c2cnn(C)c2)n1)c1ccnc(Cl)c1 [Compound 9, (S)-6-(4-chlorophenyl)-N-(1-(2-chloro-4-pyridine)ethyl)-2-(1-methyl-1H-pyrazol-4-yl)pyrimidine-4-formamide] | < 0.05
10 | C[C@H](NC(=O)c1cc(-c2ccc(Cl)cc2)nc(-c2cnn(C)c2)n1)c1ccc(O)c(F)c1 [Compound 11, (S)-6-(4-chlorophenyl)-N-(1-(3-fluoro-4-hydroxyphenyl)ethyl)-2-(1-methyl-1H-pyrazol-4-yl)pyrimidine-4-formamide] | > 1
11 | C[C@H](NC(=O)c1cc(-c2ccc(Cl)cc2)nc(-c2cnn(C)c2)n1)c1ccnc(C#N)c1 [Compound 12, (S)-6-(4-chlorophenyl)-N-(1-(2-cyano-4-pyridine)ethyl)-2-(1-methyl-1H-pyrazol-4-yl)pyrimidine-4-formamide] | < 0.05
12 | C[C@H](NC(=O)c1cc(-c2ccc(Cl)cc2)nc(-c2cnn(C)c2)n1)c1ccc(Cl)c(F)c1 [Compound 13, (S)-6-(4-chlorophenyl)-N-(1-(3-fluoro-4-chlorophenyl)ethyl)-2-(1-methyl-1H-pyrazol-4-yl)pyrimidine-4-formamide] | < 0.05
13 | C[C@H](NC(=O)c1cc(-c2ccc(Cl)cc2)nc(-c2cnn(C)c2)n1)c1cnn(C)c1 [Compound 14, (S)-6-(4-chlorophenyl)-N-(1-(1-methyl-1H-pyrazol-4-yl)ethyl)-2-(1-methyl-1H-pyrazol-4-yl)pyrimidine-4-formamide] | < 0.05
14 | C[C@H](NC(=O)c1cc(-c2ccc(Cl)cc2)nc(-c2cnn(C)c2)n1)c1ccnc(F)c1 [Compound 15, (S)-6-(4-chlorophenyl)-N-(1-(2-fluoro-4-pyridine)ethyl)-2-(1-methyl-1H-pyrazol-4-yl)pyrimidine-4-formamide] | < 0.05
15 | C[C@H](NC(=O)c1cc(-c2ccc(Cl)cc2)nc(-c2cnn(C)c2)n1)c1ccc2c(c1)OCO2 [Compound 16, (S)-6-(4-chlorophenyl)-N-(1-[5(2H-1,3-benzodioxomethylene)]ethyl)-2-(1-methyl-1H-pyrazol-4-yl)pyrimidine-4-formamide] | 0.05 to 0.2

Second part, the compound after the results:

Row | IC50 [µM] | SMILES
16 | < 0.05 | C[C@H](NC(=O)c1cc(-c2ccc(Cl)cc2)nc(-c2cnn(C)c2)n1)c1ccn2ncnc2c1 [Compound 17]
17 | < 0.05 | CC[C@H](NC(=O)c1cc(-c2ccc(Cl)cc2)nc(-c2cnn(C)c2)n1)c1ccc(F)cc1 [Compound 18, (S)-6-(4-chlorophenyl)-N-(1-(4-fluorophenyl)n-propyl)-2-(1-methyl-1H-pyrazol-4-yl)pyrimidine-4-formamide]
18 | < 0.05 | Cn1cc(-c2nc(C(=O)N[C@H](c3ccc(F)cc3)C3CC3)cc(-c3ccc(Cl)cc3)n2)cn1 [Compound 19, (S)-6-(4-chlorophenyl)-N-(1-cyclopropyl(4-fluorophenyl))-2-(1-methyl-1H-pyrazol-4-yl)pyrimidine-4-formamide]
19 | 0.05 to 0.2 | Cn1cc(-c2nc(C(=O)N[C@H]3CCc4cc(F)c(F)cc43)cc(-c3ccc(Cl)cc3)n2)cn1 [Compound 20, (S)-6-(4-chlorophenyl)-N-((S)-(5,6-difluoro-2,3-dihydro)-(−)-1-yl-2-indene)-2-(1-methyl-1H-pyrazol-4-yl)pyrimidine-4-formamide]
20 | 0.05 to 0.2 | Cn1cc(-c2nc(C(=O)N[C@H]3CCc4ccc(F)cc43)cc(-c3ccc(Cl)cc3)n2)cn1 [Compound 21, (S)-6-(4-chlorophenyl)-N-((S)-(6-fluoro-2,3-dihydro)-(−)-1-yl-2-indene)-2-(1-methyl-1H-pyrazol-4-yl)pyrimidine-4-formamide]
21 | > 1 | Cn1cc(-c2nc(C(=O)NCC3(c4ccc(Cl)cc4)CC3)cc(-c3ccc(Cl)cc3)n2)cn1 [Compound 22, (S)-6-(4-chlorophenyl)-N-(1-[1-(4-chlorophenyl)cyclopropyl]methyl)-2-(1-methyl-1H-pyrazol-4-yl)pyrimidine-4-formamide]
22 | < 0.05 | Cn1cc(-c2nc(C(=O)N[C@H]3CCCc4ncccc43)cc(-c3ccc(Cl)cc3)n2)cn1 [Compound 23, (S)-6-(4-chlorophenyl)-N-((S)-5,6,7,8-tetrahydro-6H-quinol-5-yl)-2-(1-methyl-1H-pyrazol-4-yl)pyrimidine-4-formamide]
23 | 0.2 to 1 | C[C@H](NC(=O)c1cc(-c2ccc(Cl)cc2)nc(-c2cnn(C)c2)n1)c1ccccc1C(F)(F)F [Compound 24, (S)-6-(4-chlorophenyl)-N-(1-(o-trifluoromethylphenyl)ethyl)-2-(1-methyl-1H-pyrazol-4-yl)pyrimidine-4-formamide]
24 | > 1 | Cn1cc(-c2nc(C(=O)N[C@H]3CC(C)(C)c4ccccc43)cc(-c3ccc(Cl)cc3)n2)cn1 [Compound 25, (S)-6-(4-chlorophenyl)-N-((S)-(3,3-dimethyl-2,3-dihydro)-(−)-1-yl-2-indene)-2-(1-methyl-1H-pyrazol-4-yl)pyrimidine-4-formamide]
25 | < 0.05 | C[C@H](NC(=O)c1cc(-c2ccc(Cl)cc2)nc(-c2cnn(C)c2)n1)c1cccc(F)c1 [Compound 26, (S)-6-(4-chlorophenyl)-N-(1-(3-fluorophenyl)ethyl)-2-(1-methyl-1H-pyrazol-4-yl)pyrimidine-4-formamide]
